Data: patent publication US10881110B2, “Herbicidal compositions comprising isoxazolo[5,4-b]pyridines” (BASF SE, priority 2014, dated 2021)
Values joined by “and” are separate entries in the source; they are usually repeats but may differ in a detail not shown here. Equal entries are not always repeated. Where two headings read alike, the source gives them in different places.

How the values were obtained:
Assay in all cases: greenhouse post-emergence herbicidal test
CHEAL = format: in vivo, Chenopodium album
In short: (§1)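 Each species was sown separately, grown to a height of 1 to 15 cm and then sprayed with water-dispersed components A, B and where relevant C. Growth conditions were 10-25° C or 20-35° C, and percent damage was recorded at 20 days.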

GALAP = format: in vivo, Galium aparine; set-up: key to herbicidal activity against GALAP found: rating on a scale from 0 to 100; conditions: post emergence; for pest or weed control at 31.25 g/ha / pest or weed control at 62.5 g/ha / pest or weed control at 125 g/ha: Galium aparine, post-emergence, 480 h, read-out: herbicidal activity against GALAP found; for pest or weed control at 125 g/ha: 125 g/ha a.i.
In short: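 Post-emergence greenhouse test: plants in loamy sand, sprayed at 1–15 cm height with aqueous spray liquor from 10% emulsion concentrates, kept at 10-25 °C or 20-35 °C by species. Damage scored 0–100 (100 = complete destruction), usually 20 days after treatment. Expected additive effect E from Colby: E=X+Y−(X·Y/100).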

MATCH = format: in vivo, Matricaria recutita; set-up: key to herbicidal activity against MATCH found: rating on a scale from 0 to 100; conditions: post emergence
In short: as §1

[1] = a.i. g/ha: I.1 15.6, B.67 125, 20 days after treatment
[2] = a.i. g/ha: I.1 20.8, B.67 62.5, 20 days after treatment
[3] = a.i. g/ha: I.1 31.25, B.67 125, 20 days after treatment
[4] = a.i. g/ha: I.1 62.5, B.69 25, 20 days after treatment
[5] = a.i. g/ha: I.1 62.5, B.82 31.25, 20 days after treatment
[6] = I.1 31.25 g/ha, B.95 1 g/ha a.i.
[7] = I.1 31.25 g/ha, B.95 2 g/ha a.i.

O=C(O)c1cc(C2CC2)nc2onc(C3CC3)c12 [I.1]
herbicidal activity against CHEAL found (CHEAL; a.i. g/ha: I.1 6.9, B.67 62.5, 20 days after treatment): 0%
herbicidal activity against CHEAL found (CHEAL; a.i. g/ha: I.1 15.6, B.190 62.5, 20 days after treatment): 70%
herbicidal activity against CHEAL found (CHEAL; [1]): 0%
herbicidal activity against CHEAL found (CHEAL; a.i. g/ha: I.1 20.8, B.192 62.5, 20 days after treatment): 85%
herbicidal activity against CHEAL found (CHEAL; [2]): 85%
herbicidal activity against CHEAL found (CHEAL; [3]): 65%
herbicidal activity against CHEAL found (CHEAL; a.i. g/ha: I.1 31.25, B.69 25, 20 days after treatment): 30%
herbicidal activity against CHEAL found (CHEAL; a.i. g/ha: I.1 31.25, B.76 225, 20 days after treatment): 30%
herbicidal activity against CHEAL found (CHEAL; [4]): 60%
herbicidal activity against CHEAL found (CHEAL; a.i. g/ha: I.1 62.5, B.76 225, 20 days after treatment): 60%
herbicidal activity against CHEAL found (CHEAL; [5]): 60%
pest or weed control at 31.25 g/ha (GALAP; I.1 alone 31.25 g/ha a.i.): 50%
pest or weed control at 62.5 g/ha (GALAP; I.1 alone 62.5 g/ha a.i.): 80%
pest or weed control at 31.25 g/ha (GALAP; 31.25 g/ha a.i.): 50%
pest or weed control at 62.5 g/ha (GALAP; 62.5 g/ha a.i.): 50%
pest or weed control at 125 g/ha (GALAP): 80%
pest or weed control at 31.25 g/ha (GALAP; I.1 31.25 g/ha a.i.): 60%
pest or weed control at 62.5 g/ha (GALAP; I.1 62.5 g/ha a.i.): 60%
pest or weed control at 62.5 g/ha (GALAP; single active, 62.5 g/ha a.i.): 65%
pest or weed control at 125 g/ha (GALAP; single active): 65%
herbicidal activity against GALAP found (GALAP; 6 days after treatment, g/ha a.i.: I.1 62.5, B.96 70, mixture 62.5+70): 65
herbicidal activity against GALAP found (GALAP; 6 days after treatment, g/ha a.i.: I.1 62.5, B.96 140, mixture 62.5+140): 65
herbicidal activity against GALAP found (GALAP; [6]): 50
herbicidal activity against GALAP found (GALAP; [7]): 50
herbicidal activity against GALAP found (GALAP; I.1 62.5 g/ha, B.103 7.5 g/ha a.i.): 50
herbicidal activity against GALAP found (GALAP; I.1 62.5 g/ha, B.95 2 g/ha a.i.): 60
herbicidal activity against GALAP found (GALAP; [1]): 20%
herbicidal activity against GALAP found (GALAP; [2]): 0%
herbicidal activity against GALAP found (GALAP; [3]): 75%
herbicidal activity against GALAP found (GALAP; a.i. g/ha: I.1 31.25, B.92 0.5, 20 days after treatment): 65%
herbicidal activity against GALAP found (GALAP; a.i. g/ha: I.1 62.5, B.191 225, 20 days after treatment): 65%
herbicidal activity against GALAP found (GALAP; a.i. g/ha: I.1 62.5, B.67 62.5, 20 days after treatment): 10%
herbicidal activity against GALAP found (GALAP; [4]): 65%
herbicidal activity against GALAP found (GALAP; a.i. g/ha: I.1 62.5, B.77 75, 20 days after treatment): 10%
herbicidal activity against GALAP found (GALAP; [5]): 65%
herbicidal activity against GALAP found (GALAP; application rate a.i.: I.1 31.25 g/ha, B.84 (paraquat-dichloride) 17.5 g/ha, alone or as mixture (composition 1.84)): 65
herbicidal activity against GALAP found (GALAP; application rate a.i.: I.1 62.5 g/ha, B.107 (topramezone) 6 g/ha, alone or as mixture (composition 1.107)): 10
herbicidal activity against GALAP found (GALAP; application rate a.i.: I.1 125 g/ha, B.113 (glyphosate) 33.75 g/ha, alone or as mixture (composition 1.113)): 80
herbicidal activity against GALAP found (GALAP; application rate a.i.: I.1 125 g/ha, B.113 (glyphosate) 135 g/ha, alone or as mixture (composition 1.113)): 80
herbicidal activity against GALAP found (GALAP; applied alone at 31.25 g/ha a.i.): 50
herbicidal activity against GALAP found (GALAP; applied alone at 62.5 g/ha a.i.): 90
herbicidal activity against GALAP found (GALAP; applied alone at 125 g/ha a.i.): 65 and 95 and 90
pest or weed control at 31.25 g/ha (MATCH; Matricaria chamomilla, post-emergence, 480 h, I.1 alone 31.25 g/ha a.i., read-out: herbicidal activity against MATCH found): 0%
pest or weed control at 125 g/ha (MATCH; Matricaria chamomilla, post-emergence, 480 h, I.1 alone 125 g/ha a.i., read-out: herbicidal activity against MATCH found): 0%
pest or weed control at 62.5 g/ha (MATCH; Matricaria chamomilla, post-emergence, 480 h, 62.5 g/ha a.i., read-out: herbicidal activity against MATCH found): 50%
pest or weed control at 31.25 g/ha (MATCH; Matricaria chamomilla, post-emergence, 480 h, I.1 31.25 g/ha a.i., read-out: herbicidal activity against MATCH found): 20%
pest or weed control at 62.5 g/ha (MATCH; Matricaria chamomilla, post-emergence, 480 h, I.1 62.5 g/ha a.i., read-out: herbicidal activity against MATCH found): 30%
pest or weed control at 31.25 g/ha (MATCH; Matricaria chamomilla, post-emergence, 480 h, single active, 31.25 g/ha a.i., read-out: herbicidal activity against MATCH found): 15%
pest or weed control at 62.5 g/ha (MATCH; Matricaria chamomilla, post-emergence, 480 h, single active, 62.5 g/ha a.i., read-out: herbicidal activity against MATCH found): 60%
herbicidal activity against MATCH found (MATCH; 6 days after treatment, g/ha a.i.: I.1 31.25, naptalam 50, mixture 31.25+50): 0
herbicidal activity against MATCH found (MATCH; 6 days after treatment, g/ha a.i.: I.1 31.25, naptalam 100, mixture 31.25+100): 0
herbicidal activity against MATCH found (MATCH; 6 days after treatment, g/ha a.i.: I.1 62.5, naptalam 50, mixture 62.5+50): 10
herbicidal activity against MATCH found (MATCH; I.1 15.62 g/ha, B.95 1 g/ha a.i.): 10
herbicidal activity against MATCH found (MATCH; [6]): 10
herbicidal activity against MATCH found (MATCH; [7]): 10
herbicidal activity against MATCH found (MATCH; I.1 62.5 g/ha, B.167 62.5 g/ha a.i.): 0
herbicidal activity against MATCH found (MATCH; I.1 62.5 g/ha, B.167 125 g/ha a.i.): 0
